# According to patent US20210371351A1, “MIXTURES COMPRISING AT LEAST TWO DIFFERENT NITRIFICATION INHIBITORS SELECTED FROM 2-(3,4-DIMETHYL-1H-PYRAZOL-1-YL)SUCCINIC ACID (DMPSA), 3,4-DIMETHYL PYRAZOLIUM GLYCOLATE (DMPG) AND OTHER COMPOUNDS” (BASF SE, priority 2017, published 2021):
# System: nitrification
# Experiment: Example 3: soil column trial (soil Limburgerhof) with ammonium sulfate, DMPP, DMPSA or DMPP+DMPSA; leaching at 5° C., incubation 10 d or 20 d at 15° C.; NH4-N/NO3-N, % inhibition of NO3-N formation (Böhland), Colby
# Conditions: 0.05% DMPP, 0.45% DMPSA
# Description: The effect on NH4^+ retention and NH4^+ to NO3^− ratios in the soil after fertilization of ammonium sulfate with the addition of DMPP, DMPSA or a combination of DMPP and DMPSA was investigated in column trials simulating climatic conditions of spring time in central Europe. Soil Limburgerhof (pH(CaCl2) 6.8, texture: 73% sand; 24% silt, 3% clay) was filled dry into a glass column with an inner width of 4 cm. At the bottom 0.4 g cotton wool was placed above which a frit (Co. Robu, pore size 1) was placed above which 100 g of 2 mm sieved soil Limburgerhof was layered. The soil height in the column was about 7 cm. Before fertilization the soil was brought to about 60% of its water holding capacity (WHC) be adding 14.4 mL of deionized water. Per column 10 mg NH4—N as ammonium sulfate was fertilized or not (control) together or not with 0.05% DMPP (DMPP obtained from BASF SE), 0.45% DMPSA (DMPSA used as free acid obtained from BASF SE) and 0.05% DMPP plus 0.45% DMPSA (% of nitrification inhibitor w/w of NH4—N). Every treatment was replicated three times.
# After fertilization, 50 mL demineralized water was carefully and slowly placed on top of each column which equals about 31 mm precipitation. After 24 h the eluate was collected and by sucking off the soil to bring it back to about 60% of its WHC. All handlings including soil preparation, fertilization and the temperature of the water for both wetting the soil and the artificial precipitation up to the collection of the eluate 24 h after fertilization was performed at 5° C.
# Thereafter, the columns were incubated for 10 d or 20 d at constantly 15° C. in an incubator. After 7 d and 14 d, water was added by weight where needed to bring the soils uniformly to 60% WHC. After 10 d or 20 d, the soil was removed from the columns and extracted with 1% (w/w) K2SO4 solution by shaking for 2 h at room temperature. The filtrated extract was then analyzed for NH4^+ and NO3 colorimetrical by an autoanalyzer.
# To calculate the inhibition of nitrate formation by the nitrification inhibitors during the incubation, the above-mentioned Böhland equation was used. To examine synergistic effects of the combination of DMPP+DMPSA the formula by Colby (Colby, S.R., “Calculating synergistic and antagonistic responses of herbicide Combinations”, Weeds, 15, pp. 20-22, 1967) was used. To determine background levels of NH4+ to NO3−, every treatment was also extracted immediately after fertilization and after leaching prior to the further incubation at 15° C. for 10 d or 20 d.
# [1] = 10 days of incubation at 15° C.
# [2] = 20 days of incubation at 15° C.
substance,measurement,setting,value
"2-(3,4-dimethyl-1H-pyrazol-1-yl)succinic acid and/or 2-(4,5-dimethyl-1H-pyrazol-1-yl)succinic acid [DMPSA]",During incubation: % inhibition of NO3—N formation by NI acc. to Böhland equation (1973) (MV),[1],14.2%
same,Net NI effect % NH4 from fertilized NH4 (MV),[1],6.88%
same,Ratio NH4—N/NO3—N (MV),[1],0.53
same,Soil mg/100 g NH4—N (MV),[1],3.16 mg/100 g
same,Soil mg/100 g NO3—N (MV),[1],6.30 mg/100 g
same,During incubation: % inhibition of NO3—N formation by NI acc. to Böhland equation (1973) (MV),[2],4.8%
same,Net NI effect % NH4 from fertilized NH4 (MV),[2],1.79%
same,Ratio NH4—N/NO3—N (MV),[2],0.02
same,Soil mg/100 g NH4—N (MV),[2],0.19 mg/100 g
same,Soil mg/100 g NO3—N (MV),[2],9.60 mg/100 g
